According to the NIST ThermoML archive (doi:10.1016/j.jct.2014.07.026):
Numbers after ± are expanded uncertainties.

Experiment: mn = molality of the nth substance listed, in mol/kg
Conditions: 100 kPa, Liquid; for mass density: Vibrating tube method; for speed of sound: Frequency=2 MHz, Linear variable-path acoustic interferometer

CCCCn1cc[n+](C)c1.C[C@H](N)C(=O)[O-] [3-butyl-1-methyl-1H-imidazolium L-alaninate] + O
Conditions	mass density [kg/m3]	speed of sound [m/s]
293.15 K, m1 = 0.03078	999.145 ± 0.11	–
293.15 K, m1 = 0.04697	999.63 ± 0.11	–
293.15 K, m1 = 0.06646	1000.21 ± 0.11	–
293.15 K, m1 = 0.08363	1000.72 ± 0.11	–
293.15 K, m1 = 0.0978	1001.14 ± 0.11	–
293.15 K, m1 = 0.1393	1002.34 ± 0.11	–
293.15 K, m1 = 0.1674	1003.15 ± 0.11	–
293.15 K, m1 = 0.2011	1004.09 ± 0.11	–
293.15 K, m1 = 0.2513	1005.48 ± 0.11	–
293.15 K, m1 = 0.2946	1006.67 ± 0.11	–
293.15 K, m1 = 0.3312	1007.64 ± 0.11	–
293.15 K, m1 = 0.383	1009.05 ± 0.11	–
293.15 K, m1 = 0.4337	1010.33 ± 0.11	–
298.15 K, m1 = 0.03078	997.956 ± 0.11	–
298.15 K, m1 = 0.04697	998.423 ± 0.11	–
298.15 K, m1 = 0.06346	–	1507.5 ± 2.5
298.15 K, m1 = 0.06646	998.985 ± 0.11	–
298.15 K, m1 = 0.08363	999.477 ± 0.11	–
298.15 K, m1 = 0.0978	999.884 ± 0.11	–
298.15 K, m1 = 0.1393	1001.05 ± 0.11	–
298.15 K, m1 = 0.1428	–	1519.5 ± 2.5
298.15 K, m1 = 0.1674	1001.83 ± 0.11	–
298.15 K, m1 = 0.1848	–	1526.1 ± 2.5
298.15 K, m1 = 0.2011	1002.75 ± 0.11	–
298.15 K, m1 = 0.2434	–	1534.3 ± 2.5
298.15 K, m1 = 0.2513	1004.09 ± 0.11	–
298.15 K, m1 = 0.2946	1005.25 ± 0.11	–
298.15 K, m1 = 0.2968	–	1541.6 ± 2.5
298.15 K, m1 = 0.3312	1006.21 ± 0.11	–
298.15 K, m1 = 0.3455	–	1549.5 ± 2.5
298.15 K, m1 = 0.383	1007.55 ± 0.11	–
298.15 K, m1 = 0.3934	–	1555.4 ± 2.5
298.15 K, m1 = 0.4337	1008.88 ± 0.11	–
298.15 K, m1 = 0.4399	–	1561.4 ± 2.5
298.15 K, m1 = 0.4872	–	1567.8 ± 2.5
298.15 K, m1 = 0.546	–	1576.5 ± 2.5
303.15 K, m1 = 0.03078	996.541 ± 0.11	–
303.15 K, m1 = 0.04697	996.999 ± 0.11	–
303.15 K, m1 = 0.06646	997.554 ± 0.11	–
303.15 K, m1 = 0.08363	998.04 ± 0.11	–
303.15 K, m1 = 0.0978	998.438 ± 0.11	–
303.15 K, m1 = 0.1393	999.57 ± 0.11	–
303.15 K, m1 = 0.1674	1000.34 ± 0.11	–
303.15 K, m1 = 0.2011	1001.23 ± 0.11	–
303.15 K, m1 = 0.2513	1002.54 ± 0.11	–
303.15 K, m1 = 0.2946	1003.67 ± 0.11	–
303.15 K, m1 = 0.3312	1004.62 ± 0.11	–
303.15 K, m1 = 0.383	1005.95 ± 0.11	–
303.15 K, m1 = 0.4337	1007.21 ± 0.11	–
308.15 K, m1 = 0.03124	994.926 ± 0.11	–
308.15 K, m1 = 0.05075	995.469 ± 0.11	–
308.15 K, m1 = 0.06032	995.732 ± 0.11	–
308.15 K, m1 = 0.08315	996.374 ± 0.11	–
308.15 K, m1 = 0.09789	996.775 ± 0.11	–
308.15 K, m1 = 0.1399	997.892 ± 0.11	–
308.15 K, m1 = 0.181	998.999 ± 0.11	–
308.15 K, m1 = 0.2108	999.761 ± 0.11	–
308.15 K, m1 = 0.2555	1000.94 ± 0.11	–
308.15 K, m1 = 0.2996	1002.03 ± 0.11	–
308.15 K, m1 = 0.3385	1003.03 ± 0.11	–
308.15 K, m1 = 0.3814	1004.06 ± 0.11	–
308.15 K, m1 = 0.4337	1005.37 ± 0.11	–
313.15 K, m1 = 0.03124	993.094 ± 0.11	–
313.15 K, m1 = 0.05075	993.624 ± 0.11	–
313.15 K, m1 = 0.06032	993.886 ± 0.11	–
313.15 K, m1 = 0.08315	994.504 ± 0.11	–
313.15 K, m1 = 0.09789	994.894 ± 0.11	–
313.15 K, m1 = 0.1399	996.012 ± 0.11	–
313.15 K, m1 = 0.181	997.076 ± 0.11	–
313.15 K, m1 = 0.2108	997.849 ± 0.11	–
313.15 K, m1 = 0.2555	998.984 ± 0.11	–
313.15 K, m1 = 0.2996	1000.07 ± 0.11	–
313.15 K, m1 = 0.3385	1001.05 ± 0.11	–
313.15 K, m1 = 0.3814	1002.07 ± 0.11	–
313.15 K, m1 = 0.4337	1003.34 ± 0.11	–
